{"source": "patent US20010010822A1", "about": "“LIPID COMPLEXES AND LIPOSOMES OF HIGHLY INSOLUBLE PLATINUM COMPLEXES” (priority 1999, published 2001)", "tested_on": "PLATINUM RESISTANT P388 CELL LINE", "assay": "Anti-tumor activity of DACH-platinum compounds against platinum resistant P388 cell line", "format": "in vivo", "conditions": "initial tumor burden 1.0 × 10^6"}
{"smiles": "N.N.[Cl][Pt][Cl]", "note": "[Cisplatin]", "values": [{"measurement": "% Increase in Length of Survival", "setting": "dose 3.5 mg/kg", "result": "+3%"}, {"measurement": "% T/C", "setting": "dose 3.5 mg/kg", "result": 103.8, "unit": "%"}, {"measurement": "Log10 Change in Tumor Burden", "setting": "dose 3.5 mg/kg", "result": "+1.7"}, {"measurement": "Median Day of Death", "setting": "dose 3.5 mg/kg", "result": 13.5}, {"measurement": "% Increase in Length of Survival", "setting": "dose 5.3 mg/kg", "result": "+15%"}, {"measurement": "% T/C", "setting": "dose 5.3 mg/kg", "result": 115.4, "unit": "%"}, {"measurement": "Log10 Change in Tumor Burden", "setting": "dose 5.3 mg/kg", "result": "+1.5"}, {"measurement": "Median Day of Death", "setting": "dose 5.3 mg/kg", "result": 15.0}, {"measurement": "% Increase in Length of Survival", "setting": "dose 8.0 mg/kg", "result": "+23%"}, {"measurement": "% T/C", "setting": "dose 8.0 mg/kg", "result": 123.1, "unit": "%"}, {"measurement": "Log10 Change in Tumor Burden", "setting": "dose 8.0 mg/kg", "result": "+1.5"}, {"measurement": "Median Day of Death", "setting": "dose 8.0 mg/kg", "result": 16.0}]}
